{"source": "patent US20230172837A1", "about": "“AGENT FOR PREVENTING AND/OR IMPROVING PHOTOAGING AND/OR DERMAL PIGMENTATION, COSMETIC METHOD USING SAME, AND COSMETIC DEVICE TO BE APPLIED IN SAID METHOD” (SHISEIDO COMPANY, LTD., priority 2020, published 2023)", "tested_on": "M0 macrophages differentiated from THP-1", "assay": "Intracellular activity of M0 macrophages, flux analyzer (OCR)", "assay_type": "cell-based, human", "settings": "M0, 3 ppm, 48 hours, versus solvent (DMSO) alone", "method": "M0 macrophages, M1 macrophages and M2 macrophages induced to differentiate from THP-1 by the same method as Experiment 2 were measured for intracellular activity using an XFe24 (24-well) extracellular flux analyzer by Agilent Technologies (previously Seahorse Bioscience) (hereunder referred to as “flux analyzer”), with reference to Nat Immunol, 2014. 15(9): pp 846-855 (NPL 14). A flux analyzer is a device that allows non-invasive, highly sensitive periodic measurement of cells to determine the state of glycolysis as the main cellular energy metabolism pathway, and aerobic respiration by mitochondria.\nUsing a flux analyzer, oligomycin (ATP synthase inhibitor) (“Oligo”), FCCP (uncoupling agent) and rotenone (mitochondrial complex I inhibitor)+antimycin A (mitochondria complex III inhibitor) (“Rot+Ant”) were added at predetermined times and the oxygen consumption rate (OCR) and extracellular acidification rate (ECAR) were measured. The ECAR and OCR values used were the basal OCR and basal ECAR values at 18.3 minutes after measurement. Each measured value was calibrated by the number of cells determined by counting the cell nuclei stained by addition of Hoechst.\nM0, M1 and M2 differentiated from THP-1 were prepared by the same method as Experiment 2, and hakushinin extract (hakushinin hydrolysate) prepared by the same method as Experiment 13 was added to the M0 (at 0.3 ppm, 1 ppm or 3 ppm). At 48 hours after incubation, the oxygen consumption rate (OCR) was measured using a flux analyzer. Each measured value was calibrated by the number of cells determined by counting the cell nuclei stained by addition of Hoechst (FIG. 21).\nM0 and M2 differentiated from THP-1 were prepared by the same method as Experiment 2, linoleic acid, linolenic acid or juniperonic acid (3 ppm) was added to M0, and after 48 hours the oxygen consumption rate (OCR) was measured with a flux analyzer by the same method as Experiment 15. Each measured value was calibrated by the number of cells determined by counting the cell nuclei stained by addition of Hoechst.\nThe Basal OCR and mitochondrial respiration values for M0 were examined with the incubation time changed to 24 hours after addition of the hakushinin extract or unsaturated fatty acid. The experiment method was carried out by the same method as described in Experiment 17, except that the incubation time was changed to 24 hours after addition of the hakushinin extract or unsaturated fatty acid.", "data": [{"compound": "CC/C=C\\C/C=C\\C/C=C\\CCCC/C=C\\CCCC(=O)O", "note": "[juniperonic acid]", "values": [{"measurement": "Basal OCR", "value": "not significantly different"}, {"measurement": "mitochondrial respiration", "value": "not significantly different"}]}, {"compound": "CCCCC/C=C\\C/C=C\\CCCCCCCC(=O)O", "note": "[linoleic acid]", "values": [{"measurement": "Basal OCR", "value": "not significantly different"}, {"measurement": "mitochondrial respiration", "value": "not significantly different"}]}]}
